How the values were obtained:
glucoamylase = glucoamylase (Aspergillus niger, UniProt P69328); experiment: Effect of acarbose on glucoamylase activity (remaining activity with maltose); type: biochemical; conditions: for Inhibition (%) glucoamylase: one unit of glucoamylase
Description: (§1) A particularly effective, selective inhibitor is acarbose which is identified by J. Jap. Soc. […] The difference in the effect of acarbose on glucoamylase and transglucosidase has led to the development of a sensitive assay for transglucosidase in the presence of glucoamylase. To determine the level of acarbose needed to inhibit glucoamylase completely, purified glucoamylase equivalent to one DU (the amount that liberates one gram of reducing sugar per hour under the conditions of the assay published in U.S. Pat. No. 3,249,514) is treated with graded amounts of acarbose and the remaining activity measured by incubation with maltose under appropriate conditions, for example, at pH 4.2 and 37° C. with a maltose concentration of 10%. The extent of inhibition of glucoamylase activity is increased with increasing concentrations of acarbose up to 50 μg acarbose per DU enzyme and above, such concentrations causing 100% inhibition. In order to determine the effect of acarbose on TG activity, glucoamylase (one DU) containing TG (40 TG units, vide infra) was treated with different concentrations of acarbose and then incubated with maltose (10%), at pH 4.8, and 37° C. for one hour. The enzyme reaction was then terminated by heating the reaction mixture in a boiling water bath for 15 minutes and transglucosidase activity was determined by measuring, using liquid chromatography, the amount of panose produced during the reaction period. […] In these experiments, panose was routinely measured by a high pressure liquid chromatography procedure which separated this compound from glucose and maltose. Alternative procedures for specific determination of panose can be used equally well.
(§2) It is recognized that the inhibition of glucoamylase or acarbose and the measurement of transglucosidase activity may equally well be conducted under different conditions. In order to work at such alternative conditions, it is necessary to determine the effect of a range of acarbose concentrations under the conditions selected, and in this way to identify a level of acarbose sufficient to give complete inhibition of glucoamylase without inhibiting transglucosidase activity.
^a one unit of glucoamylase was present in the reaction mixture.

transglucosidase = transglucosidase (Aspergillus niger, UniProt P56526); experiment: Effect of acarbose on transglucosidase activity (panose produced from maltose, in presence of glucoamylase); type: biochemical; conditions: for amount of panose produced: maltose 10%, pH 4.8, 37° C., one hour; for Inhibition (%) transglucosidase: 40 units of transglucosidase
Description: as §1, §2
^b 40 units of transglucosidase were present in the reaction mixture.

amylolytic enzymes = conditions: J. Jap. Soc. Starch Sci., 27, 114-119 (1980); cited from earlier work
[1] = acarbose 1.25 μg/DU glucoamylase
[2] = acarbose 2.5 μg/DU glucoamylase
[3] = acarbose 100 μg/DU glucoamylase
[4] = acarbose 200 μg/DU glucoamylase
[5] = acarbose 300 μg/DU glucoamylase
[6] = acarbose 400 μg/DU glucoamylase
[7] = acarbose 500 μg/DU glucoamylase
[8] = acarbose 600 μg/DU glucoamylase
[9] = acarbose 800 μg/DU glucoamylase
[10] = acarbose 1000 μg/DU glucoamylase
[11] = acarbose 2000 μg/DU glucoamylase

Chain of transglucosidase (P56526 26-266): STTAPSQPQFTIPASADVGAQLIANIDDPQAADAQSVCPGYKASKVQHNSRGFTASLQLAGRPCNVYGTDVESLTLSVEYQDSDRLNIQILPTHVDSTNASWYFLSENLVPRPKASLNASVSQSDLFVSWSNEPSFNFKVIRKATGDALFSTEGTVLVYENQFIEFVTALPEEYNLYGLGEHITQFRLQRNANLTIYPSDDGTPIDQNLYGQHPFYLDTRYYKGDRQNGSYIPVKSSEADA
Chain of transglucosidase (P56526 267-985): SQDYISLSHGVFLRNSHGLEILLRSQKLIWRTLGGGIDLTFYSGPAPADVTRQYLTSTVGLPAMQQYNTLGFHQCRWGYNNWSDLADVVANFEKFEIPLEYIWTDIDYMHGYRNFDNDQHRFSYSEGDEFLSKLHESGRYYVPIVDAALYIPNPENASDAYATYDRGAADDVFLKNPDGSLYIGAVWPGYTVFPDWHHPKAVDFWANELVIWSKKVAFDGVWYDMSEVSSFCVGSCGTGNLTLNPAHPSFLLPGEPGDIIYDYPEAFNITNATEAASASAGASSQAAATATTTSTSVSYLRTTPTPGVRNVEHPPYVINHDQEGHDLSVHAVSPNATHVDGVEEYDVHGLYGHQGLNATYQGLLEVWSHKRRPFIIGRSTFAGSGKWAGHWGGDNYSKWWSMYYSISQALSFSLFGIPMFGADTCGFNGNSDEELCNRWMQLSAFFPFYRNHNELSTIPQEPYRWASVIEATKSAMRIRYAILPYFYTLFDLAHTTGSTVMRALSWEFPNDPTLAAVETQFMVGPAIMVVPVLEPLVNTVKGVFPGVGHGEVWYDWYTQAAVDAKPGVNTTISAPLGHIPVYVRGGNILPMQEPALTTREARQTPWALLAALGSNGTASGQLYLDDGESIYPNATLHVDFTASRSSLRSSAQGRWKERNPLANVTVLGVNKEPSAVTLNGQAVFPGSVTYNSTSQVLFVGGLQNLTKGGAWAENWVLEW
Chain of glucoamylase (P69328 25-640): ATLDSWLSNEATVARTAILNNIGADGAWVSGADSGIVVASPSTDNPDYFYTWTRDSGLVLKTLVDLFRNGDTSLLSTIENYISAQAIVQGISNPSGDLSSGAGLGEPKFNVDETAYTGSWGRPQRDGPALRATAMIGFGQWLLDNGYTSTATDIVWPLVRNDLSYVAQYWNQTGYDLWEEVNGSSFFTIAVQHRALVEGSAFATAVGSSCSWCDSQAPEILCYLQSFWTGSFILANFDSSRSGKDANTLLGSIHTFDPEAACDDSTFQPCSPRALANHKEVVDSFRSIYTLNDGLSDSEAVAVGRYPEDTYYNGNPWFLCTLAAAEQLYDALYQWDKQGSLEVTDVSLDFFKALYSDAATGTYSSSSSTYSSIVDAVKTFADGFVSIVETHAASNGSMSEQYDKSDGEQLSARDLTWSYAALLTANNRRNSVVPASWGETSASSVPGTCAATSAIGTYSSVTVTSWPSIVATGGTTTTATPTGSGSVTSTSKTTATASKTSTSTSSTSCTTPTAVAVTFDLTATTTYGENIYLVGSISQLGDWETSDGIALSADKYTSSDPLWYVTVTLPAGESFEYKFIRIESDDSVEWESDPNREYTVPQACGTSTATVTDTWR

C[C@H]1O[C@H](O[C@H]2[C@H](O)[C@@H](O)[C@@H](O[C@H]3[C@H](O)[C@@H](O)C(O)O[C@@H]3CO)O[C@@H]2CO)[C@H](O)[C@@H](O)[C@@H]1N[C@H]1C=C(CO)[C@@H](O)[C@H](O)[C@H]1O (stereo partly shown) [acarbose]
inhibition of glucoamylase activity (glucoamylase; 50 μg acarbose per DU enzyme and above, maltose 10%, pH 4.2, 37° C.): 100%
Inhibition (%) glucoamylase (glucoamylase; [1]): 23%
Inhibition (%) glucoamylase (glucoamylase; [2]): 36%
Inhibition (%) glucoamylase (glucoamylase; acarbose 5 μg/DU glucoamylase): 65%
Inhibition (%) glucoamylase (glucoamylase; acarbose 10 μg/DU glucoamylase): 86%
Inhibition (%) glucoamylase (glucoamylase; acarbose 15 μg/DU glucoamylase): 91%
Inhibition (%) glucoamylase (glucoamylase; acarbose 20 μg/DU glucoamylase): 95%
Inhibition (%) glucoamylase (glucoamylase; acarbose 30 μg/DU glucoamylase): 97%
Inhibition (%) glucoamylase (glucoamylase; acarbose 40 μg/DU glucoamylase): 98%
Inhibition (%) glucoamylase (glucoamylase; acarbose 50 μg/DU glucoamylase): 100%
Inhibition (%) glucoamylase (glucoamylase; [3]): 100%
Inhibition (%) glucoamylase (glucoamylase; [4]): 100%
Inhibition (%) glucoamylase (glucoamylase; [5]): 100%
Inhibition (%) glucoamylase (glucoamylase; [6]): 100%
Inhibition (%) glucoamylase (glucoamylase; [7]): 100%
Inhibition (%) glucoamylase (glucoamylase; [8]): 100%
Inhibition (%) glucoamylase (glucoamylase; [9]): 100%
Inhibition (%) glucoamylase (glucoamylase; [10]): 100%
Inhibition (%) glucoamylase (glucoamylase; [11]): 100%
inhibition of glucoamylase activity (glucoamylase; acarbose 50-500 μg/DU): completely inhibited
amount of panose produced (transglucosidase; above 50 up to 500 μg acarbose per DU of glucoamylase): remained constant
Inhibition (%) transglucosidase (transglucosidase; [1]): 0%
Inhibition (%) transglucosidase (transglucosidase; [2]): 0%
Inhibition (%) transglucosidase (transglucosidase; acarbose 5 μg/DU glucoamylase): 0%
Inhibition (%) transglucosidase (transglucosidase; acarbose 10 μg/DU glucoamylase): 0%
Inhibition (%) transglucosidase (transglucosidase; acarbose 15 μg/DU glucoamylase): 0%
Inhibition (%) transglucosidase (transglucosidase; acarbose 20 μg/DU glucoamylase): 0%
Inhibition (%) transglucosidase (transglucosidase; acarbose 30 μg/DU glucoamylase): 0%
Inhibition (%) transglucosidase (transglucosidase; acarbose 40 μg/DU glucoamylase): 0%
Inhibition (%) transglucosidase (transglucosidase; acarbose 50 μg/DU glucoamylase): 0%
Inhibition (%) transglucosidase (transglucosidase; [3]): 0%
Inhibition (%) transglucosidase (transglucosidase; [4]): 0%
Inhibition (%) transglucosidase (transglucosidase; [5]): 0%
Inhibition (%) transglucosidase (transglucosidase; [6]): 0%
Inhibition (%) transglucosidase (transglucosidase; [7]): 0%
Inhibition (%) transglucosidase (transglucosidase; [8]): 6%
Inhibition (%) transglucosidase (transglucosidase; [9]): 8%
Inhibition (%) transglucosidase (transglucosidase; [10]): 12%
Inhibition (%) transglucosidase (transglucosidase; [11]): 23%
inhibition of transglucosidase activity (transglucosidase; acarbose 50-500 μg/DU): without there being any inhibition of transglucosidase activity
amount of panose produced (transglucosidase; acarbose exceeding 500 μg/DU glucoamylase): steady decrease in the amount of panose produced, indicating inhibition of TG
amount of panose produced (transglucosidase; up to 50 μg acarbose per DU of glucoamylase): increased with increasing levels of acarbose
inhibition of amylolytic enzymes (amylolytic enzymes): inhibitor of amylolytic enzymes

Reference: patent US4575487A, “Method for determination of transglucosidase” (Miles Laboratories, Inc., priority 1983, dated 1986)
